In one series the test system is HEK 293 cells. Kind of series: Primary screen of lipid reagents: plasmid DNA transfection, YFP fluorescence relative to total cell number (Hoechst). Type of series: cell-based. The following applies: for cell toxicity: Hoechst stained apoptotic nuclei, microscope images; for transfection efficiency: HEK 293 cells, plasmid DNA (YFP), 20 to 24 hours after transfection. An excerpt: Cell line: HEK 293 cells Screen format: 96-well Detection (read-out): YFP fluorescence relative to total cell number (total cell number assessed using the nuclear dye, Hoechst—see FIGS. 1 and 2)
A commercially available liposomal transfection reagent was used as a reference (reference reagent) according to manufacturers' instructions, see FIGS. 1 and 2.
All steps performed in 96 tube/plate format using 8- or 12-channel multi-pipettes. Amounts shown are for duplicate (2×) wells of a 96-well plate.
1. 0.8 μl lipid reagents diluted in 20 μl 50 mmol/l NaOAc buffer, pH 5.0. 2. Diluted lipid reagents from (1) were added to 150 ng DNA (25 ng pH2B-YFP+125 ng pCS-LacZ plasmids) in 20 μl NaOAc buffer, pH 5.0 and mixed with pipette action. 3. After 30 min incubation at RT, added 100 μl freshly resuspended cells (5×10^4 cells/well DMEM culture medium supplemented with 10% fetal calf serum) and mixed with pipette. 4. Duplicate 65 μl aliquots of the cells+lipid/DNA complexes were immediately transferred to separate wells of a 96-well culture plate and placed in 37° C. incubator with 5% CO2. 5. 20 to 24 hours after initial transfection of cells, Hoechst 33258 dye was added to cells at a final concentration of 0.2 μg/ml and cells incubated for a further 30 min at 37° C. Cells were then placed on an inverted microscope and 2 independent sets of images of the cells captured from each well as shown in FIGS. 1 and 2.
For each sample, 3 images were captured: bright field image of cells (FIGS. 1 and 2 upper panels), Hoechst dye stained image of total cell nuclei (FIGS. 1 and 2 middle panels) and YFP images showing cells successfully transfected with plasmid DNA and expressing YFP protein (FIGS. 1 and 2 lower panels). Microscope images of transfected HEK 293 cells, showing both the transfection efficiency and toxicity level of two of our lipid molecules (#30 and #60) compared to a commonly used commercial transfection reagent (reference reagent).

The test system of series [1] is mouse embryonic fibroblast (MEF) cells. Briefly: Transfection of LRP6 siRNA in MEF cells, Western Blot of LRP6 protein. It counts as cell-based. Particulars: for siRNA mediated gene silencing compared with the commercial reagent A: LRP6 siRNA, MEF cells cultured for 24 hours, Western Blot; for ability to deliver siRNA molecules to cells: see FIGS. 5 and 6. Here is the method: In order to screen for this two different types of cells were used to test the ability of our lipid reagents to deliver siRNA targeting Low density lipoprotein receptor related protein 6 (LRP6). This is a 200 kD single-pass transmembrane receptor for Wnt ligands and activates the Wnt/b-catenin signalling pathway. It is expressed at relatively high levels in MEF cells.
Assay: Transfection of siRNA in mouse embryonic fibroblast (MEF) cells
All steps performed in 0.2 ml PCR tubes and 96 well plate format. Amounts shown are for one well of a 96-well plate.
1. 0.25 μl lipid reagents diluted in 8 μl 50 mmol/l NaOAc buffer, pH 5.0. 2. Diluted lipid reagents from (1) added to 1 pmol (0.2 μl of 5 μmol/1) siRNA molecules in 8 μl NaOAc buffer, pH 5.0 and mixed with pipette action. The siRNA molecules used had either a scrambled sequence not specific for any known gene (Con siRNA), or a sequence specifically targeting the endogenous mRNA from the LRP6 gene (LRP6 siRNA). 3. After 30 min incubation at RT, added 50 μl freshly resuspended cells (2×10^4 cells/well DMEM culture medium supplemented with 10% fetal calf serum) in one well of a 96-well plate and placed in 37° C. incubator with 5% CO2. 4. 24 hours after initial transfection, cells, were lysed in 25 μl detergent buffer (50 mmol/l Tris, 1% Triton X-100, 0.15 mol/l NaCl, pH 7.0, containing protease and phosphatase inhibitors), spun to remove insoluble cell debris and […] clarified lysates added to 10 μl of 4× SDS loading buffer (250 mmol/l Tris HCl, 40% Glycerol, 8% SDS, 0.01% Bromophenol Blue, 5% 2-Mercaptoethanol, pH 6.8). 5. Samples were denatures by heating at 96° C. for 2 min and 12 μl loaded on a 9% SDS-PAGE gels for separation of proteins according to molecular weight. Separated proteins were transferred from the SDS-PAGE gel to nitrocellulose membrane for Western Blot (WB) analysis. 6. WB was performed using an automated BioLane HTI instrument using antibodies against LRP6 and α-tubublin proteins. HRP linked secondary antibodies and chemiluminescence were used to detect the proteins on the membrane.
FIGS. 5 and 6 show the Western Blot (WB) analysis of LRP6 protein from total lysates of MEF (mouse embryonic fibroblast) cells transfected with the indicated siRNA molecules and cultured for 24 hours.
A general note: In western blotting, separated proteins are transferred to a membrane and probed.

Turning to `CCCCCCCCCCCSCC(COCC(O)CNCCN(CC)CC)SCCCCCCCCCCC` (stereo not shown) [Example 64, 3-ethyl-12-(undecylthio)-10-oxa-14-thia-3,6-diazapentacosan-8-ol], in the series on HEK 293 cells, the cell toxicity entry is reported as “very low toxicity”. In addition, in series [1], the “siRNA mediated gene silencing compared with the commercial reagent A” value was “quite effective” and the “ability to deliver siRNA molecules to cells” value is “very efficiently deliver siRNA molecules to cells”.
As for `CCCCCCCCCCCSCC(CNC(=O)NCCCN(CC)CC)SCCCCCCCCCCC` (stereo not shown) [Example 30, 1-(2,3-bis(undecylthio)propyl)-3-(3-(diethylamino)propyl)urea], in the series on HEK 293 cells, the transfection efficiency entry was “approximately 90%” and the cell toxicity result is recorded as “low cell toxicity”.
In the case of `CCCCCCCCCCCCSCC(COCC(O)CNCCCN(CC)CC)SCCCCCCCCCCCC` (stereo not shown) [Example 60, 13-(dodecylthio)-3-ethyl-11-oxa-15-thia-3,7-diazaheptacosan-9-ol], in the series with HEK 293 cells, the transfection efficiency result is given as “approximately 90%” and the cell toxicity entry is on record as “low cell toxicity”.
On to `CCCCCCCCCCCSCC(CNC(=O)NCCN(C)C)SCCCCCCCCCCC` (stereo not shown) [Example 24, 1-(2,3-bis(undecylthio)propyl)-3-(2-(dimethylamino)ethyl)urea], for which the cell toxicity entry in the series with HEK 293 cells was “very low toxicity”. In series [1], the “siRNA mediated gene silencing compared with the commercial reagent A” value was “quite effective” and the “ability to deliver siRNA molecules to cells” value is reported as “very efficiently deliver siRNA molecules to cells”.

Values taken from patent US20170204076A1, “SYNTHESIS AND USE OF AMINO LIPIDS” (INCELLA GMBH, priority 2014, published 2017).
